In patent US20070128217A1 (priority 2003, published 2007):

Experiments:
[1] = test system: antibodies in sera from SARS patients (sera 1a, 1b, 2, 6, 37, 62, London, SARS-yellow, SARS-green); type: binding, human; set-up: Binding of serum 6 to linear peptides of protein X1 of SARS-CoV Urbani / Binding of serum 37 to linear peptides of protein X1 of SARS-CoV Urbani / Binding of serum 6 to looped/cyclic peptide (PEPSCAN-ELISA) / Binding of serum 37 to looped/cyclic peptide (PEPSCAN-ELISA) / Binding of serum 37 to looped/cyclic peptides of protein X1 of SARS-CoV Urbani / Binding of serum 6 to linear peptides of protein X2 / Binding of serum 37 to linear peptides of protein X2 / Binding of serum 37 to looped/cyclic peptides of protein X2 of SARS-CoV Urbani / Binding of serum 6 to linear peptides of protein M of SARS-CoV Urbani / Binding of serum 37 to linear peptides of protein M of SARS-CoV Urbani / Binding of serum 6 to looped/cyclic peptides of protein M of SARS-CoV Urbani / Binding of serum 37 to looped/cyclic peptides of protein M of SARS-CoV Urbani / Binding of serum 6 to linear peptides of protein X3 of SARS-CoV Urbani / Binding of serum 37 to linear peptides of protein X3 of SARS-CoV Urbani / Binding of serum 37 to looped/cyclic peptides of protein X3 of SARS-CoV Urbani / Binding of serum 6 to linear peptides of protein X4 of SARS-CoV Urbani / Binding of serum 37 to linear peptides of protein X4 of SARS-CoV Urbani / Binding of serum 37 to looped/cyclic peptides of protein X4 of SARS-CoV Urbani / Binding of serum 6 to linear peptides of protein X5 of SARS-CoV Urbani / Binding of serum 37 to linear peptides of protein X5 of SARS-CoV Urbani / Binding of serum 37 to looped/cyclic peptides of protein X5 of SARS-CoV Urbani / Binding of serum 6 to linear peptides of protein N of SARS-CoV Urbani / Binding of serum 37 to linear peptides of protein N of SARS-CoV Urbani / Binding of serum 6 to linear peptide (PEPSCAN-ELISA) / Binding of serum 1a to looped/cyclic peptides of protein N of SARS-CoV Urbani / Binding of serum 1b to looped/cyclic peptides of protein N of SARS-CoV Urbani / Binding of serum 2 to looped/cyclic peptides of protein N of SARS-CoV Urbani / Binding of serum 6 to looped/cyclic peptides of protein N of SARS-CoV Urbani / Binding of serum 37 to looped/cyclic peptides of protein N of SARS-CoV Urbani / Binding of serum 62 to looped/cyclic peptides of protein N of SARS-CoV Urbani / Binding of serum London to looped/cyclic peptides of protein N of SARS-CoV Urbani / Binding of serum SARS-green to looped/cyclic peptides of protein N of SARS-CoV Urbani: unit not given here
[2] = test system: control sera (pooled serum of ten healthy LUMC hospital workers; commercial negative donor pooled serum from the Dutch bloodbank); type: binding, human; set-up: Binding of Control serum LUMC to linear peptides / Binding of Control serum Blood-bank to linear peptides / Binding of Control serum LUMC to looped peptides / Binding of Control Serum Blood-Bank to Looped peptides / Binding of Control serum LUMC to linear peptides of the protein M of SARS-CoV Urbani / Binding of Control serum Blood-bank to linear peptides of the protein M of SARS-CoV Urbani / Binding of Control serum LUMC to looped peptides of the protein M of SARS-CoV Urbani / Binding of Control Serum Blood-Bank to Looped peptides of the protein M of SARS-CoV Urbani: unit not given here
[3] = test system: rabbit serum obtained by immunizing a rabbit with the SARS-CoV strain Frankfurt 1; type: binding; set-up: Binding of a rabbit serum to linear peptides / Binding of a rabbit serum to looped peptides / Rabbit serum linear peptides / Rabbit serum looped peptides / Binding of a rabbit serum to linear peptides of protein N of SARS-CoV Urbani (Rabbit serum linear peptides) / Binding of a rabbit serum to looped/cyclic peptides of protein N of SARS-CoV Urbani (Rabbit serum looped peptides): unit not given here

LLVAAGMEAQFLYLY
0.7: Binding of serum 1b to linear peptides of protein X1 of SARS-CoV Urbani [1] | Binding of Control serum LUMC to linear peptides [2]
0.8: Binding of serum 1a to linear peptides of protein X1 of SARS-CoV Urbani [1]
0.2: Binding of serum London to looped/cyclic peptide (PEPSCAN-ELISA) [1] | Binding of a rabbit serum to linear peptides [3]
0.3: Binding of serum 6 to looped/cyclic peptide (PEPSCAN-ELISA) [1] | Binding of serum London to linear peptides of protein X1 of SARS-CoV Urbani [1]
0.6: Binding of serum 1a to looped/cyclic peptide (PEPSCAN-ELISA) [1] | Binding of serum 2 to linear peptides of protein X1 of SARS-CoV Urbani [1] | Binding of serum 2 to looped/cyclic peptide (PEPSCAN-ELISA) [1] | Binding of serum 37 to linear peptides of protein X1 of SARS-CoV Urbani [1] | Binding of serum 37 to looped/cyclic peptide (PEPSCAN-ELISA) [1] | Binding of serum 62 to looped/cyclic peptide (PEPSCAN-ELISA) [1] | Binding of Control serum LUMC to looped peptides [2]
0.5: Binding of serum 1b to looped/cyclic peptide (PEPSCAN-ELISA) [1] | Binding of serum 6 to linear peptides of protein X1 of SARS-CoV Urbani [1] | Binding of serum 62 to linear peptides of protein X1 of SARS-CoV Urbani [1] | Binding of serum SARS-yellow to looped/cyclic peptide (PEPSCAN-ELISA) [1] | Binding of Control Serum Blood-Bank to Looped peptides [2] | Binding of Control serum Blood-bank to linear peptides [2] | Binding of a rabbit serum to looped peptides [3]
0.4: Binding of serum SARS-green to looped/cyclic peptide (PEPSCAN-ELISA) [1] | Binding of serum SARS-yellow to linear peptides of protein X1 of SARS-CoV Urbani [1]
0.1: Binding of serum SARS-green to linear peptides of protein X1 of SARS-CoV Urbani [1]

LSLHKLLQTLVLKML
0.6: Binding of serum 6 to looped/cyclic peptides of protein X2 of SARS-CoV Urbani [1] | Binding of serum 62 to looped/cyclic peptides of protein X2 of SARS-CoV Urbani [1] | Binding of serum SARS-yellow to looped/cyclic peptides of protein X2 of SARS-CoV Urbani [1] | Binding of Control Serum Blood-Bank to Looped peptides [2]
1.3: Binding of serum London to looped/cyclic peptides of protein X2 of SARS-CoV Urbani [1]
0.7: Binding of serum 1a to linear peptides of protein X2 [1] | Binding of Control serum LUMC to looped peptides [2]
0.4: Binding of serum 1b to linear peptides of protein X2 [1] | Binding of serum 1b to looped/cyclic peptides of protein X2 of SARS-CoV Urbani [1] | Binding of serum 37 to linear peptides of protein X2 [1] | Binding of serum 37 to looped/cyclic peptides of protein X2 of SARS-CoV Urbani [1] | Binding of serum London to linear peptides of protein X2 [1] | Binding of serum SARS-green to linear peptides of protein X2 [1]
0.2: Binding of serum SARS-green to looped/cyclic peptides of protein X2 of SARS-CoV Urbani [1] | Binding of serum SARS-yellow to linear peptides of protein X2 [1] | Binding of Control serum LUMC to linear peptides [2]
0.3: Binding of serum 2 to linear peptides of protein X2 [1] | Binding of serum 2 to looped/cyclic peptides of protein X2 of SARS-CoV Urbani [1] | Binding of serum 6 to linear peptides of protein X2 [1] | Binding of a rabbit serum to linear peptides [3]
0.5: Binding of serum 1a to looped/cyclic peptides of protein X2 of SARS-CoV Urbani [1] | Binding of serum 62 to linear peptides of protein X2 [1] | Binding of Control serum Blood-bank to linear peptides [2] | Binding of a rabbit serum to looped peptides [3]

RLFARTRSMWSFNPE
0.4: Binding of serum 6 to linear peptides of protein M of SARS-CoV Urbani [1] | Binding of serum London to linear peptides of protein M of SARS-CoV Urbani [1] | Binding of serum SARS-green to looped/cyclic peptides of protein M of SARS-CoV Urbani [1] | Binding of serum SARS-yellow to looped/cyclic peptides of protein M of SARS-CoV Urbani [1] | Rabbit serum linear peptides [3]
1.0: Binding of serum 37 to linear peptides of protein M of SARS-CoV Urbani [1]
0.8: Binding of serum 1b to looped/cyclic peptides of protein M of SARS-CoV Urbani [1] | Binding of serum 6 to looped/cyclic peptides of protein M of SARS-CoV Urbani [1] | Binding of Control serum Blood-bank to linear peptides of the protein M of SARS-CoV Urbani [2]
0.0: Rabbit serum looped peptides [3]
0.5: Binding of serum 2 to looped/cyclic peptides of protein M of SARS-CoV Urbani [1] | Binding of serum SARS-green to linear peptides of protein M of SARS-CoV Urbani [1] | Binding of Control serum LUMC to linear peptides of the protein M of SARS-CoV Urbani [2] | Binding of Control serum LUMC to looped peptides of the protein M of SARS-CoV Urbani [2]
0.9: Binding of serum 1a to linear peptides of protein M of SARS-CoV Urbani [1] | Binding of serum 1b to linear peptides of protein M of SARS-CoV Urbani [1] | Binding of serum 62 to linear peptides of protein M of SARS-CoV Urbani [1]
0.1: Binding of serum SARS-yellow to linear peptides of protein M of SARS-CoV Urbani [1]
0.6: Binding of serum 2 to linear peptides of protein M of SARS-CoV Urbani [1] | Binding of serum 37 to looped/cyclic peptides of protein M of SARS-CoV Urbani [1] | Binding of serum 62 to looped/cyclic peptides of protein M of SARS-CoV Urbani [1]
0.2: Binding of serum London to looped/cyclic peptides of protein M of SARS-CoV Urbani [1]
0.7: Binding of serum 1a to looped/cyclic peptides of protein M of SARS-CoV Urbani [1] | Binding of Control Serum Blood-Bank to Looped peptides of the protein M of SARS-CoV Urbani [2]

PAGGALIARCWYLHE
0.6: Binding of serum 1b to looped/cyclic peptides of protein X5 of SARS-CoV Urbani [1] | Binding of serum 2 to linear peptides of protein X5 of SARS-CoV Urbani [1] | Binding of serum 2 to looped/cyclic peptides of protein X5 of SARS-CoV Urbani [1] | Binding of serum SARS-green to looped/cyclic peptides of protein X5 of SARS-CoV Urbani [1]
0.8: Binding of serum 1a to linear peptides of protein X5 of SARS-CoV Urbani [1] | Binding of serum 1a to looped/cyclic peptides of protein X5 of SARS-CoV Urbani [1] | Binding of serum 6 to linear peptides of protein X5 of SARS-CoV Urbani [1] | Binding of Control Serum Blood-Bank to Looped peptides [2]
0.9: Binding of serum 1b to linear peptides of protein X5 of SARS-CoV Urbani [1] | Binding of serum 37 to linear peptides of protein X5 of SARS-CoV Urbani [1] | Binding of serum 62 to linear peptides of protein X5 of SARS-CoV Urbani [1] | Binding of serum SARS-green to linear peptides of protein X5 of SARS-CoV Urbani [1]
0.5: Binding of serum SARS-yellow to looped/cyclic peptides of protein X5 of SARS-CoV Urbani [1] | Binding of Control serum LUMC to looped peptides [2] | Rabbit serum linear peptides [3] | Rabbit serum looped peptides [3]
0.3: Binding of serum London to looped/cyclic peptides of protein X5 of SARS-CoV Urbani [1] | Binding of serum SARS-yellow to linear peptides of protein X5 of SARS-CoV Urbani [1]
0.7: Binding of serum 37 to looped/cyclic peptides of protein X5 of SARS-CoV Urbani [1] | Binding of serum 62 to looped/cyclic peptides of protein X5 of SARS-CoV Urbani [1] | Binding of serum London to linear peptides of protein X5 of SARS-CoV Urbani [1] | Binding of Control serum Blood-bank to linear peptides [2]
0.4: Binding of serum 6 to looped/cyclic peptides of protein X5 of SARS-CoV Urbani [1] | Binding of Control serum LUMC to linear peptides [2]

AGGALIARCWYLHEG
0.8: Binding of serum 1a to linear peptides of protein X5 of SARS-CoV Urbani [1] | Binding of serum 37 to linear peptides of protein X5 of SARS-CoV Urbani [1]
0.5: Binding of serum 2 to linear peptides of protein X5 of SARS-CoV Urbani [1] | Binding of serum 2 to looped/cyclic peptides of protein X5 of SARS-CoV Urbani [1] | Binding of serum 6 to looped/cyclic peptides of protein X5 of SARS-CoV Urbani [1] | Binding of serum 62 to looped/cyclic peptides of protein X5 of SARS-CoV Urbani [1] | Binding of serum SARS-yellow to linear peptides of protein X5 of SARS-CoV Urbani [1] | Binding of Control serum LUMC to linear peptides [2] | Rabbit serum linear peptides [3]
0.2: Binding of serum London to looped/cyclic peptides of protein X5 of SARS-CoV Urbani [1]
0.7: Binding of serum 1a to looped/cyclic peptides of protein X5 of SARS-CoV Urbani [1] | Binding of serum 1b to linear peptides of protein X5 of SARS-CoV Urbani [1] | Binding of serum 6 to linear peptides of protein X5 of SARS-CoV Urbani [1] | Binding of serum London to linear peptides of protein X5 of SARS-CoV Urbani [1] | Binding of serum SARS-green to linear peptides of protein X5 of SARS-CoV Urbani [1] | Binding of Control Serum Blood-Bank to Looped peptides [2]
0.4: Binding of serum 1b to looped/cyclic peptides of protein X5 of SARS-CoV Urbani [1] | Binding of serum SARS-green to looped/cyclic peptides of protein X5 of SARS-CoV Urbani [1] | Binding of serum SARS-yellow to looped/cyclic peptides of protein X5 of SARS-CoV Urbani [1] | Binding of Control serum LUMC to looped peptides [2] | Rabbit serum looped peptides [3]
0.9: Binding of serum 62 to linear peptides of protein X5 of SARS-CoV Urbani [1]
0.6: Binding of serum 37 to looped/cyclic peptides of protein X5 of SARS-CoV Urbani [1] | Binding of Control serum Blood-bank to linear peptides [2]
